Here are results for 10 compounds from patent publication US10245275B2 (ViiV HEALTHCARE UK (NO.4) LIMITED, priority 2014, dated 2019).

Test [1] has as its system WT (wild-type HIV virus; recombinant NL4-3 virus). Description: microbe, parasite or virus in culture. Type of test: cell-based, HIV-1. A digest of the protocol: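 MT-2 cells infected 4-5 days with NL4-3 carrying Renilla luciferase in place of part of nef (Gag P373S), virus made by 293T transfection, with serial inhibitor dilutions. Antiviral activity read as luciferase activity by a modified dual-luciferase read-out.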

Test [2] has as its system HIV-1 NL4-3 gag A364V virus. Description: microbe, parasite or virus in culture. Type of test: cell-based. In outline: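 Recombinant NL4-3 reporter virus with Renilla luciferase replacing part of nef, made by transfection of 293T cells. MT-2 cells infected for 4-5 days with serial inhibitor dilutions; antiviral activity quantified by luciferase activity.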
The mark [3] stands for this setting: Human immunodeficiency virus 1, NL43, MT2, read-out: WT (EC50, uM), Table 1 regular screen, MT-2 cells, luciferase readout.
Setting [4] is: Human immunodeficiency virus 1, NL43, MT2, read-out: A364V (EC50, uM), Table 1 regular screen, MT-2 cells, luciferase readout.
[5] abbreviates: Human immunodeficiency virus 1, NL43, MT2, read-out: WT (EC50, uM), Table 1 regular screen, class symbol.
The mark [6] stands for this setting: Human immunodeficiency virus 1, NL43, MT2, read-out: A364V (EC50, uM), Table 1 regular screen, class symbol.

Read-outs that look alike come from different tables or passages of the source.

A word on the EC50: it is the midpoint of the concentration-response curve.

Regarding `C=C(C)[C@@H]1CC[C@]2(NCC[C@]3(O)CC[C@@](C)(O)CC3)CC[C@]3(C)[C@H](CC[C@@H]4[C@@]5(C)CC=C(C6=CC[C@](CF)(C(=O)O)CC6)C(C)(C)[C@@H]5CC[C@]43C)[C@@H]12` [Example 2-18, (S)-4-((1R,3aS,5aR,5bR,7aR,11aS,11bR,13aR,13bR)-3a-((2-((cis)-1,4-dihydroxy-4-methylcyclohexyl)ethyl)amino)-5a,5b,8,8,11a-pentamethyl-1-(prop-1-en-2-yl)-2,3,3a,4,5,5a,5b,6,7,7a,8,11,11a,11b,12,13,13a,13b-octadecahydro-1H-cyclopenta[a]chrysen-9-yl)-1-(fluoromethyl)cyclohex-3-enecarboxylic acid], the EC50 in test [1] (setting [3]) amounted to 0.00165 µM; in test [2] (setting [4]), 0.854 µM.
In the case of `C=C(C)[C@@H]1CC[C@]2(NCC(C)(C)O)CC[C@]3(C)[C@H](CC[C@@H]4[C@@]5(C)CC=C(C6=CC[C@](CF)(C(=O)O)CC6)C(C)(C)[C@@H]5CC[C@]43C)[C@@H]12` [Example 2-2, (S)-1-(fluoromethyl)-4-((1R,3aS,5aR,5bR,7aR,11aS,11bR,13aR,13bR)-3a-((2-hydroxy-2-methylpropyl)amino)-5a,5b,8,8,11a-pentamethyl-1-(prop-1-en-2-yl)-2,3,3a,4,5,5a,5b,6,7,7a,8,11,11a,11b,12,13,13a,13b-octadecahydro-1H-cyclopenta[a]chrysen-9-yl)cyclohex-3-enecarboxylic acid], the concentration for a half-maximal effect (EC50) in test [1] (setting [5]) was under 0.05 µM; in test [2] (setting [6]), over 0.05 µM.
For `C=C(C)[C@@H]1CC[C@]2(NCC(=O)N3CCC(C)(O)CC3)CC[C@]3(C)[C@H](CC[C@@H]4[C@@]5(C)CC=C(C6=CC[C@](CF)(C(=O)O)CC6)C(C)(C)[C@@H]5CC[C@]43C)[C@@H]12` [Example 30, (S)-1-(fluoromethyl)-4-((1R,3aS,5aR,5bR,7aR,11aS,11bR,13aR,13bR)-3a-((2-(4-hydroxy-4-methylpiperidin-1-yl)-2-oxoethyl)amino)-5a,5b,8,8,11a-pentamethyl-1-(prop-1-en-2-yl)-2,3,3a,4,5,5a,5b,6,7,7a,8,11,11a,11b,12,13,13a,13b-octadecahydro-1H-cyclopenta[a]chrysen-9-yl)cyclohex-3-enecarboxylic acid], the figures for the EC50 in test [1] (setting [3]) and in test [2] (setting [4]) were 0.00298 µM and 0.551 µM, respectively.
As to `C=C(C)[C@@H]1CC[C@]2(NC(=O)CC3CCOCC3)CC[C@]3(C)[C@H](CC[C@@H]4[C@@]5(C)CC=C(C6=CC[C@](CF)(C(=O)O)CC6)C(C)(C)[C@@H]5CC[C@]43C)[C@@H]12` [Example 8, (S)-1-(fluoromethyl)-4-((1R,3aS,5aR,5bR,7aR,11aS,11bR,13aR,13bR)-5a,5b,8,8,11a-pentamethyl-1-(prop-1-en-2-yl)-3a-(2-(tetrahydro-2H-pyran-4-yl)acetamido)-2,3,3a,4,5,5a,5b,6,7,7a,8,11,11a,11b,12,13,13a,13b-octadecahydro-1H-cyclopenta[a]chrysen-9-yl)cyclohex-3-enecarboxylic acid], the EC50 in test [1] (setting [5]) and in test [2] (setting [6]) was over 0.05 µM throughout.
For `C=C(C)[C@@H]1CC[C@]2(NCCN3CCC(C(=O)OCC)(C(=O)OCC)CC3)CC[C@]3(C)[C@H](CC[C@@H]4[C@@]5(C)CC=C(C6=CC[C@@](CF)(C(=O)O)CC6)C(C)(C)[C@@H]5CC[C@]43C)[C@@H]12` [Example 13, (R)-4-((1R,3aS,5aR,5bR,7aR,11aS,11bR,13aR,13bR)-3a-((2-(4,4-bis(ethoxycarbonyl)piperidin-1-yl)ethyl)amino)-5a,5b, 8,8,11a-pentamethyl-1-(prop-1-en-2-yl)-2,3,3a,4,5,5a,5b,6,7,7a,8,11,11a,11b,12,13,13a,13b-octadecahydro-1H-cyclopenta[a]chrysen-9-yl)-1-(fluoromethyl)cyclohex-3-enecarboxylic acid], the figures for the half-maximal effective concentration (EC50) in test [1] (setting [3]) and in test [2] (setting [4]) were 0.0188 µM and 0.196 µM, respectively.
The matching figures for `C=C(C)[C@@H]1CC[C@]2(NCCN3CCC(C)(O)CC3)CC[C@]3(C)[C@H](CC[C@@H]4[C@@]5(C)CC=C(C6=CC[C@](CF)(C(=O)O)CC6)C(C)(C)[C@@H]5CC[C@]43C)[C@@H]12` [Example 2-23, (S)-1-(fluoromethyl)-4-((1R,3aS,5aR,5bR,7aR,11aS,11bR,13aR,13bR)-3a-((2-(4-hydroxy-4-methylpiperidin-1-yl)ethyl)amino)-5a,5b,8,8,11a-pentamethyl-1-(prop-1-en-2-yl)-2,3,3a,4,5,5a,5b,6,7,7a,8,11,11a,11b,12,13,13a,13b-octadecahydro-1H-cyclopenta[a]chrysen-9-yl)cyclohex-3-enecarboxylic acid]: 0.00121 µM and 0.0597 µM.
As to `C=C(C)[C@@H]1CC[C@]2(NC(CN)C(F)(F)F)CC[C@]3(C)[C@H](CC[C@@H]4[C@@]5(C)CC=C(C6=CC[C@](CF)(C(=O)O)CC6)C(C)(C)[C@@H]5CC[C@]43C)[C@@H]12` (single isomer, unassigned) [Example 40], the EC50 in test [1] (read-out: WT (EC50), Table 1 regular screen, MT-2 cells, luciferase readout) came out at 0.0687 µM; in test [2] (read-out: A364V (EC50), Table 1 regular screen, MT-2 cells, luciferase readout) it was 3 µM.
For `C=C(C)[C@@H]1CC[C@]2(NCCC3(O)CCC(OS(C)(=O)=O)CC3)CC[C@]3(C)[C@H](CC[C@@H]4[C@@]5(C)CC=C(C6=CC[C@](CF)(C(=O)O)CC6)C(C)(C)[C@@H]5CC[C@]43C)[C@@H]12` (stereo partly drawn) [Example 2-22, (S)-1-(fluoromethyl)-4-((1R,3aS,5aR,5bR,7aR,11aS,11bR,13aR,13bR)-3a-((2-(1-hydroxy-4-((methylsulfonyl)oxy)cyclohexyl)ethyl)amino)-5a,5b,8,8,11a-pentamethyl-1-(prop-1-en-2-yl)-2,3,3a,4,5,5a,5b,6,7,7a,8,11,11a,11b,12,13,13a,13b-octadecahydro-1H-cyclopenta[a]chrysen-9-yl)cyclohex-3-enecarboxylic acid], the results for the concentration for a half-maximal effect (EC50) in test [1] (setting [3]) and in test [2] (setting [4]) were 0.00315 µM and 0.107 µM, respectively.
For the compound `C=C(C)[C@@H]1CC[C@]2(NCC(=O)O)CC[C@]3(C)[C@H](CC[C@@H]4[C@@]5(C)CC=C(C6=CC[C@](CF)(C(=O)O)CC6)C(C)(C)[C@@H]5CC[C@]43C)[C@@H]12` [Example 28, (S)-4-((1R,3aS,5aR,5bR,7aR,11aS,11bR,13aR,13bR)-3a-((carboxymethyl)amino)-5a,5b, 8,8,11a-pentamethyl-1-(prop-1-en-2-yl)-2,3,3a,4,5,5a,5b,6,7,7a,8,11,11a,11b,12,13,13a,13b-octadecahydro-1H-cyclopenta[a]chrysen-9-yl)-1-(fluoromethyl)cyclohex-3-enecarboxylic acid], the EC50 in test [1] (setting [5]) and in test [2] (setting [6]) was over 0.05 µM throughout.
As to `C=C(C)[C@@H]1CC[C@]2(C(=O)NCCN3CCS(=O)(=O)CC3)CC[C@]3(C)[C@H](CC[C@@H]4[C@@]5(C)CC=C(C6=CC[C@@](CF)(C(=O)O)CC6)C(C)(C)[C@@H]5CC[C@]43C)[C@@H]12` [Example 38, (R)-4-((1R,3aS,5aR,5bR,7aR,11aS,11bR,13aR,13bR)-3a-((2-(1,1-dioxidothiomorpholino)ethyl)carbamoyl)-5a,5b,8,8,11a-pentamethyl-1-(prop-1-en-2-yl)-2,3,3a,4,5,5a,5b,6,7,7a,8,11,11a,11b,12,13,13a,13b-octadecahydro-1H-cyclopenta[a]chrysen-9-yl)-1-(fluoromethyl)cyclohex-3-enecarboxylic acid], the EC50 in test [1] (setting [5]) and in test [2] (setting [6]) was under 0.05 µM throughout.
